Data published in ChEMBL document CHEMBL5727603 (2020).

Molecular target: Rho-associated protein kinase 2 (Homo sapiens, UniProt O75116)
Test: Binding Assay: ROCK-II inhibitory activity can be measured using the ROCK-II Assay Kit (Molecular Devices, inc.; Sunnyvale, Calif.).

Sequence of Rho-associated protein kinase 2 (O75116 whole entry): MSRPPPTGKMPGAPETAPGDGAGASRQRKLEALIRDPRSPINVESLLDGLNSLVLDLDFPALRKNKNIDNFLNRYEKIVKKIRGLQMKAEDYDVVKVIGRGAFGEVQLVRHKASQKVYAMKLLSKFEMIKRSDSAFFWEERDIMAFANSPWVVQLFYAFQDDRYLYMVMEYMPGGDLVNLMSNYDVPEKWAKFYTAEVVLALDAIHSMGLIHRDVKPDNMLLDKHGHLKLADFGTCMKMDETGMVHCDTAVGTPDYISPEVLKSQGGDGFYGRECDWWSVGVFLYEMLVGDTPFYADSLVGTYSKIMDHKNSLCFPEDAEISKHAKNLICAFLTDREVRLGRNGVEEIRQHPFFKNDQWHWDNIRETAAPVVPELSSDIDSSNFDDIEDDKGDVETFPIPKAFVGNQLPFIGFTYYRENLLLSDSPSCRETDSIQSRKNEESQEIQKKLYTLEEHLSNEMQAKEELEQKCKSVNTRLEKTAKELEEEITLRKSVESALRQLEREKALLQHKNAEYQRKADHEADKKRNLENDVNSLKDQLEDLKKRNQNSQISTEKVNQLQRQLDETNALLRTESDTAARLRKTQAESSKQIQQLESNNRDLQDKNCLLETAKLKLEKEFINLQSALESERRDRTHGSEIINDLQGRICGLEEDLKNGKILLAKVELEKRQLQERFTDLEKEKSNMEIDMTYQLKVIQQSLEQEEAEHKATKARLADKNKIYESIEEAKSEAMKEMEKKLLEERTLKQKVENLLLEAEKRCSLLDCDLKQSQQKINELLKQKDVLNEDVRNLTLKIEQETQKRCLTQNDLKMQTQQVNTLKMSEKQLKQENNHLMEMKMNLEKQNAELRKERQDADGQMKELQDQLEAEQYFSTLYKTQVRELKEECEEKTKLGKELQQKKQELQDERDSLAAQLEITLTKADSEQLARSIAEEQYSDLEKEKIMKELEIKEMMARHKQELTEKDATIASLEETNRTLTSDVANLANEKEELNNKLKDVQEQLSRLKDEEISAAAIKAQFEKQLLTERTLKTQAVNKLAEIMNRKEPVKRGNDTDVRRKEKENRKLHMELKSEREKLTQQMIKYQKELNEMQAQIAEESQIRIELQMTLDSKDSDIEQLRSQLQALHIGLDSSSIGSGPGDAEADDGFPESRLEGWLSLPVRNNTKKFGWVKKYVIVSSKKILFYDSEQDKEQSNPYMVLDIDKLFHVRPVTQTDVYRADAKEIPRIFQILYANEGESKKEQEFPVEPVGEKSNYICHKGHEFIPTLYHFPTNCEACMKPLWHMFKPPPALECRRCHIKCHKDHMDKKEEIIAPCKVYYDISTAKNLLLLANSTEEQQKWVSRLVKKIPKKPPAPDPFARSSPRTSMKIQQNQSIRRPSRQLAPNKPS

IC50: 8.3 µM
Structure (SMILES): O=C(Nc1ccccc1-c1nc(Nc2ccc3[nH]ncc3c2)c2ccccc2n1)c1ccccn1
